Source: PubChem BioAssay (NCI)
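Grown in 96-well plates, cells were treated for 48 hours with each compound at five concentrations. Insufficient inhibition: endpoint recorded as highest concentration tested. GI50: concentration for 50% inhibition of growth. Definition used: TGI = concentration required for complete inhibition of growth.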

Assays:
Assay in all cases: NCI-60 cell line screen, 48 h
COLO 205 colon = test system: COLO 205 colon
SNB-78 CNS = test system: SNB-78 CNS
HT29 colon = test system: HT29 colon
NCI-H522 lung = test system: NCI-H522 lung
NCI-H23 lung = test system: NCI-H23 lung
SNB-19 CNS = test system: SNB-19 CNS
LOX IMVI melanoma = test system: LOX IMVI melanoma
DMS 273 small cell lung = test system: DMS 273 small cell lung
DMS 114 small cell lung = test system: DMS 114 small cell lung
XF 498 CNS = test system: XF 498 CNS

Structure (SMILES): CN(C)CCNC(=O)c1cccc2ncc(-c3ccccc3)nc12
- TGI (COLO 205 colon): 15.5 µM
- TGI (SNB-78 CNS): 40 µM
- TGI (HT29 colon): 52.4 µM
- TGI (NCI-H522 lung): 21.1 µM
- TGI (NCI-H23 lung): 32.2 µM
- TGI (SNB-19 CNS): 78.7 µM
- TGI (LOX IMVI melanoma): 29.5 µM
- TGI (DMS 273 small cell lung): 17.8 µM
- TGI (DMS 114 small cell lung): 26.6 µM

Structure (SMILES): CCCCCCCCCCCCCC(=O)OCC1OC(n2cc(F)c(=O)[nH]c2=O)C(N)C(OC(=O)CCCCCCCCCCCCC)C1O (stereo not given)
- TGI (COLO 205 colon): > 100 µM
- TGI (SNB-78 CNS): > 100 µM
- TGI (HT29 colon): > 100 µM
- TGI (NCI-H522 lung): > 100 µM
- TGI (NCI-H23 lung): > 100 µM
- TGI (SNB-19 CNS): > 100 µM
- TGI (LOX IMVI melanoma): > 100 µM
- TGI (DMS 273 small cell lung): > 100 µM
- TGI (DMS 114 small cell lung): > 100 µM

Structure (SMILES): O=C1C(=O)N(c2cccc(C(F)(F)F)c2)C(=O)C(=O)C1c1nc2ccccc2s1
- TGI (COLO 205 colon): > 100 µM
- TGI (SNB-78 CNS): > 100 µM
- TGI (HT29 colon): > 100 µM
- TGI (NCI-H522 lung): > 100 µM
- TGI (NCI-H23 lung): > 100 µM
- TGI (SNB-19 CNS): > 100 µM
- TGI (LOX IMVI melanoma): > 100 µM
- TGI (DMS 273 small cell lung): > 100 µM
- TGI (DMS 114 small cell lung): > 100 µM
- TGI (XF 498 CNS): > 100 µM

Structure (SMILES): CO[C@@H]1[C@H]2[C@@H](C)c3ccoc3C[C@@H]2[C@@]2(C)CC[C@H](OC(=O)c3ccccc3)[C@](C)(C(=O)O)[C@]2(O)[C@@H]1OC(=O)c1ccccc1
- GI50 (COLO 205 colon): 7.34 µM
- TGI (COLO 205 colon): 15.2 µM
- GI50 (HT29 colon): 13.5 µM
- TGI (HT29 colon): > 50 µM
- GI50 (NCI-H522 lung): 34.9 µM
- TGI (NCI-H522 lung): > 50 µM
- GI50 (NCI-H23 lung): 10.6 µM
- TGI (NCI-H23 lung): 28.5 µM
- GI50 (SNB-19 CNS): 16.1 µM
- TGI (SNB-19 CNS): > 50 µM
- GI50 (LOX IMVI melanoma): 6.73 µM
- TGI (LOX IMVI melanoma): 13.6 µM

Structure (SMILES): CN(C)CCC1(C2=CCCC2)CC/C(=C\c2ccccc2Cl)C1=O (stereo not given)
- TGI (COLO 205 colon): 41 µM
- TGI (SNB-78 CNS): 29 µM
- TGI (HT29 colon): 20.7 µM
- TGI (NCI-H23 lung): 30 µM
- TGI (SNB-19 CNS): 27.8 µM
- TGI (DMS 114 small cell lung): 29.5 µM

Structure (SMILES): CCOC(=O)c1csc(NC(=O)COc2cccc(/C=C3\CSc4ccccc4C3=O)c2)n1
- GI50 (COLO 205 colon): 8.58 µM
- TGI (COLO 205 colon): 22.6 µM
- GI50 (HT29 colon): 0.608 µM
- TGI (HT29 colon): 2.18 µM
- GI50 (NCI-H522 lung): 0.581 µM
- TGI (NCI-H522 lung): 1.49 µM
- GI50 (NCI-H23 lung): 0.105 µM
- TGI (NCI-H23 lung): 0.57 µM
- GI50 (SNB-19 CNS): 9.19 µM
- TGI (SNB-19 CNS): 22.7 µM
- GI50 (LOX IMVI melanoma): 0.071 µM
- TGI (LOX IMVI melanoma): 0.208 µM

Structure (SMILES): CCc1nc2cc(/C=C/C(=O)NO)ccc2c(=O)n1CCc1ccc(F)cc1
- GI50 (COLO 205 colon): 1.26 µM
- TGI (COLO 205 colon): 3.65 µM
- GI50 (HT29 colon): 1.49 µM
- TGI (HT29 colon): 9.06 µM
- GI50 (NCI-H522 lung): 1.34 µM
- TGI (NCI-H522 lung): 4.06 µM
- GI50 (NCI-H23 lung): 1.62 µM
- TGI (NCI-H23 lung): 3.7 µM
- GI50 (SNB-19 CNS): 1.82 µM
- TGI (SNB-19 CNS): 5.34 µM
- GI50 (LOX IMVI melanoma): 1.35 µM
- TGI (LOX IMVI melanoma): 2.78 µM

Structure (SMILES): CC(=O)NC(CCCCN(Cc1ccccc1)C(=O)N(CCCl)N=O)C(=O)NCc1ccccc1 (stereo not given)
- TGI (COLO 205 colon): 67.2 µM
- TGI (SNB-78 CNS): > 100 µM
- TGI (HT29 colon): > 72.4 µM
- TGI (NCI-H522 lung): 53.8 µM
- TGI (NCI-H23 lung): 50.3 µM
- TGI (SNB-19 CNS): 60.4 µM
- TGI (LOX IMVI melanoma): > 58.1 µM
- TGI (DMS 273 small cell lung): > 100 µM
- TGI (DMS 114 small cell lung): > 100 µM
- TGI (XF 498 CNS): > 49.8 µM

Structure (SMILES): CCOC(=O)C1SC(=Nc2ccc(Cl)cc2C)N=C1C (stereo not given)
- TGI (COLO 205 colon): 31 µM
- TGI (SNB-78 CNS): 76.7 µM
- TGI (HT29 colon): 30.3 µM
- TGI (NCI-H522 lung): 27 µM
- TGI (NCI-H23 lung): 34.8 µM
- TGI (SNB-19 CNS): > 100 µM
- TGI (LOX IMVI melanoma): 28.2 µM
- TGI (DMS 273 small cell lung): 66.9 µM
- TGI (DMS 114 small cell lung): 35.3 µM
- TGI (XF 498 CNS): 40 µM
